Test results published in patent US20120115845A1, “THERAPEUTIC AGENTS” (priority 2007, published 2012).

Columns and labels:
human GHS receptor [1] = molecular target: T1, human GHS receptor (Homo sapiens, UniProt Q92847); assay: Ghrelin IP1 agonist assay (IP1 HTRF); type: cell-based; set-up: expressed in transfected cells; host or cells: HEK293s; details: for Emax: 2 h, agonist effect as % maximal effect of GHRP-6 (5 μM), read-out: h IP1 ag %; for EC50: HEK293s cells stably expressing human GHS receptor, 2 hours at 37° C., read-out: h IP1 ag EC50
Method: In HEK293s cells stably expressing human GHS receptor (In-house), agonist activity was assessed by measuring intracellular myo-Inositol 1 phosphate (IP1) using the IP1 HTRF assay kit (Cisbio International).
Cells were harvested using accutase (Sigma), spun down at 1000 rpm for 5 minutes and resuspended in stimulation buffer (as above) containing 0.02% fatty acid free BSA at a density of 1.43E6cells/ml.
Agonist effect of the compound was expressed as % maximal effect of GHRP-6 (5 μM: Bachem). Sigmoidal curves were fitted by Origin 7.5 Client and EC50 values determined.

human GHS receptor [2] = molecular target: T1, human GHS receptor; assay: h bind IC50 (binding assay, Table 1); details: human receptor; Table 1

T1 sequence (Q92847 whole entry): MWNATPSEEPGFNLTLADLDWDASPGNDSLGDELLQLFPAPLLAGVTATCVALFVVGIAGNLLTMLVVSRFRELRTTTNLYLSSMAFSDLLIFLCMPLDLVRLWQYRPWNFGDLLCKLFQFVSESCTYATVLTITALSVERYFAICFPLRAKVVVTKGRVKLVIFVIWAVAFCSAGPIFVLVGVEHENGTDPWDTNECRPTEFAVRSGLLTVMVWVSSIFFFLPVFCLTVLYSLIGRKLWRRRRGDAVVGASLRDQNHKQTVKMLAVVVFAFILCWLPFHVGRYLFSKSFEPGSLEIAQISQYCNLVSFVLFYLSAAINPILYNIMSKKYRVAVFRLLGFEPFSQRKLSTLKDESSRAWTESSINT

`CC1CCCCN1CCS(=O)(=O)c1ccc2nc(NC(=O)NC(=O)c3ccccc3Cl)sc2c1` (stereo not drawn) [Example 27, 2-Chloro-N-[[6-[2-(2-methyl-1-piperidyl)ethylsulfonyl]benzothiazol-2-yl]carbamoyl]benzamide] gave an Emax (human GHS receptor [1]) of 46.7%, an EC50 (human GHS receptor [1]) of 23.1 nM and an IC50 (human GHS receptor [2]) of 115 nM.
In the case of `CC(C)CNCCS(=O)(=O)c1ccc2nc(NC(=O)NC(=O)c3ccccc3Cl)sc2c1` [Example 28, 2-Chloro-N-[[6-[2-(2-methylpropylamino)ethylsulfonyl]benzothiazol-2-yl]carbamoyl]benzamide], the Emax (human GHS receptor [1]) is reported as 44.6%, the EC50 (human GHS receptor [1]) is reported as 33.7 nM and the IC50 (human GHS receptor [2]) is reported as 43 nM.
Work on `O=C(NC(=O)c1ccccc1Cl)Nc1nc2ccc(S(=O)(=O)CCN3CCCOCC3)cc2s1` [Example 30, 2-Chloro-N-[[6-[2-(1,4-oxazepan-4-yl)ethylsulfonyl]benzothiazol-2-yl]carbamoyl]benzamide] yielded an Emax (human GHS receptor [1]) of 23.8%, an EC50 (human GHS receptor [1]) of 39.2 nM and an IC50 (human GHS receptor [2]) of 251 nM.
For `O=C(NC(=O)c1ccccc1Cl)Nc1nc2ccc(S(=O)(=O)CCN3CC[C@@H](F)C3)cc2s1` [Example 32, 2-Chloro-N-[[6-[2-[(3R)-3-fluoropyrrolidin-1-yl]ethylsulfonyl]benzothiazol-2-yl]carbamoyl]benzamide], the Emax (human GHS receptor [1]) was 28%, the EC50 (human GHS receptor [1]) was 309 nM and the IC50 (human GHS receptor [2]) was 400 nM.
In the case of `O=C(NC(=O)c1ccccc1Cl)Nc1nc2ccc(S(=O)(=O)CCN3CCCCC3)cc2s1` [Example 33, 2-Chloro-N-[[6-[2-(1-piperidyl)ethylsulfonyl]benzothiazol-2-yl]carbamoyl]benzamide], the Emax (human GHS receptor [1]) is reported as 41.5%, the EC50 (human GHS receptor [1]) is reported as 24.9 nM and the IC50 (human GHS receptor [2]) is reported as 88.5 nM.
With `O=C(NC(=O)c1ccccc1Cl)Nc1nc2ccc(S(=O)(=O)CCNCC3CC3)cc2s1` [Example 34, 2-Chloro-N-[[6-[2-(cyclopropylmethylamino)ethylsulfonyl]benzothiazol-2-yl]carbamoyl]benzamide] the Emax (human GHS receptor [1]) was 46.7%, the EC50 (human GHS receptor [1]) was 11.1 nM and the IC50 (human GHS receptor [2]) was 99.3 nM.
Molecule `O=C(NC(=O)c1ccccc1Cl)Nc1nc2ccc(S(=O)(=O)CCNC3CC4CCC3C4)cc2s1` (stereo not drawn) [Example 35, 2-Chloro-N-[[6-[2-(norbornan-2-ylamino)ethylsulfonyl]benzothiazol-2-yl]carbamoyl]benzamide] has an Emax (human GHS receptor [1]) of 56.1%, an EC50 (human GHS receptor [1]) of 10.4 nM and an IC50 (human GHS receptor [2]) of 71.5 nM.
In the case of `COCC1CCCN1CCS(=O)(=O)c1ccc2nc(NC(=O)NC(=O)c3ccccc3Cl)sc2c1` (stereo not drawn) [Example 36, 2-Chloro-N-[[6-[2-[2-(methoxymethyl)pyrrolidin-1-yl]ethylsulfonyl]benzothiazol-2-yl]carbamoyl]benzamide], the Emax (human GHS receptor [1]) is reported as 34.3%, the EC50 (human GHS receptor [1]) is reported as 9.55 nM and the IC50 (human GHS receptor [2]) is reported as 305 nM.
With `O=C(NC(=O)c1ccccc1Cl)Nc1nc2ccc(S(=O)(=O)CCN3C[C@@H]4C[C@H]3CO4)cc2s1` [Example 37, 2-Chloro-N-[[6-[2-[(1S,4S)-3-oxa-6-azabicyclo[2.2.1]hept-6-yl]ethylsulfonyl]benzothiazol-2-yl]carbamoyl]benzamide] the Emax (human GHS receptor [1]) was 24%, the EC50 (human GHS receptor [1]) was 61.1 nM and the IC50 (human GHS receptor [2]) was 234 nM.
Work on `CC(C)OCCNCCS(=O)(=O)c1ccc2nc(NC(=O)NC(=O)c3ccccc3Cl)sc2c1` [Example 38, 2-Chloro-N-[[6-[2-(2-propan-2-yloxyethylamino)ethylsulfonyl]benzothiazol-2-yl]carbamoyl]benzamide] yielded an Emax (human GHS receptor [1]) of 40%, an EC50 (human GHS receptor [1]) of 14.7 nM and an IC50 (human GHS receptor [2]) of 179 nM.
`O=C(NC(=O)c1ccccc1Cl)Nc1nc2ccc(S(=O)(=O)CCO)cc2s1` [Example 41, 2-Chloro-N-[[6-(2-hydroxyethylsulfonyl)benzothiazol-2-yl]carbamoyl]benzamide] showed an Emax (human GHS receptor [1]) of 18.1%, an EC50 (human GHS receptor [1]) of 95.8 nM and an IC50 (human GHS receptor [2]) of 535 nM.
Work on `CN(C)CCOCCS(=O)(=O)c1ccc2nc(NC(=O)NC(=O)c3ccccc3Cl)sc2c1` [Example 43, 2-Chloro-N-[[6-[2-(2-dimethylaminoethoxy)ethylsulfonyl]benzothiazol-2-yl]carbamoyl]benzamide] yielded an Emax (human GHS receptor [1]) of 46%, an EC50 (human GHS receptor [1]) of 42.2 nM and an IC50 (human GHS receptor [2]) of 51.7 nM.
Molecule `O=C(NC(=O)c1ccccc1Cl)Nc1nc2ccc(S(=O)(=O)C3CCNC3)cc2s1` (stereo not drawn) [Example 44, 2-Chloro-N-[(6-pyrrolidin-3-ylsulfonylbenzothiazol-2-yl)carbamoyl]benzamide] has an Emax (human GHS receptor [1]) of 49%, an EC50 (human GHS receptor [1]) of 5.73 nM and an IC50 (human GHS receptor [2]) of 18.2 nM.
Work on `CS(=O)(=O)c1ccc2nc(NC(=O)NC(=O)c3cc(-c4ccccn4)ccc3Cl)sc2c1` [Example 45, 2-Chloro-5-(pyridin-2-yl)-N-(6-(methylsulfonyl)benzothiazol-2-ylcarbamoyl)benzamide] yielded an Emax (human GHS receptor [1]) of 0.946%, an EC50 (human GHS receptor [1]) of no less than 25000 nM and an IC50 (human GHS receptor [2]) of 21.4 nM.
With `CS(=O)(=O)c1ccc2nc(NC(=O)NC(=O)c3cc(-n4cccn4)ccc3Cl)sc2c1` [Example 46, 2-Chloro-5-(pyrazol-1-yl)-N-(6-(methylsulfonyl)benzothiazol-2-ylcarbamoyl)benzamide] the Emax (human GHS receptor [1]) was 0.5%, the EC50 (human GHS receptor [1]) was 8240 nM and the IC50 (human GHS receptor [2]) was 12 nM.
`CS(=O)(=O)c1ccc2nc(NC(=O)NC(=O)c3cc(-n4ccnn4)ccc3Cl)sc2c1` [Example 47, 2-Chloro-5-[1,2,3]triazol-1-yl-N-(6-(methylsulfonyl)benzothiazol-2-ylcarbamoyl)benzamide] was tested, and the Emax (human GHS receptor [1]) was 0%, the EC50 (human GHS receptor [1]) was no less than 25000 nM and the IC50 (human GHS receptor [2]) was 81.6 nM.
For `CS(=O)(=O)c1ccc2nc(NC(=O)NC(=O)c3cc(N4CCCC4)ccc3Cl)sc2c1` [Example 48, 2-Chloro-5-(1-pyrrolidinyl)-N-(6-(methylsulfonyl)benzothiazol-2-ylcarbamoyl)benzamide], the Emax (human GHS receptor [1]) was 0.32%, the EC50 (human GHS receptor [1]) was no less than 25000 nM and the IC50 (human GHS receptor [2]) was 1.3 nM.
In the case of `CS(=O)(=O)c1ccc2nc(NC(=O)NC(=O)c3cc(C4CC4)ccc3Cl)sc2c1` [Example 49, 2-Chloro-5-cyclopropyl-N-(6-(methylsulfonyl)benzothiazol-2-ylcarbamoyl)benzamide], the Emax (human GHS receptor [1]) is reported as 0%, the EC50 (human GHS receptor [1]) is reported as no less than 25000 nM and the IC50 (human GHS receptor [2]) is reported as 12.9 nM.
Work on `CS(=O)(=O)c1ccc2nc(NC(=O)NC(=O)c3cc(N4CC=CC4)ccc3Cl)sc2c1` [Example 50, 2-Chloro-5-(2,5-dihydro-pyrrol-1-yl)-N-(6-(methylsulfonyl)benzothiazol-2-ylcarbamoyl)benzamide] yielded an Emax (human GHS receptor [1]) of 0%, an EC50 (human GHS receptor [1]) of no less than 25000 nM and an IC50 (human GHS receptor [2]) of 1 nM.
Work on `CS(=O)(=O)c1ccc2nc(NC(=O)NC(=O)c3cc(OC4CCCC4)ccc3Cl)sc2c1` [Example 51, 2-Chloro-5-cyclopentyloxy-N-(6-(methylsulfonyl)benzothiazol-2-ylcarbamoyl)benzamide] yielded an Emax (human GHS receptor [1]) of 1%, an EC50 (human GHS receptor [1]) of 16 nM and an IC50 (human GHS receptor [2]) of 14.2 nM.
Molecule `CS(=O)(=O)c1ccc2nc(NC(=O)NC(=O)c3cc(C4CCCC4)ccc3Cl)sc2c1` [Example 52, 2-Chloro-5-cyclopentyl-N-(6-(methylsulfonyl)benzothiazol-2-ylcarbamoyl)benzamide] has an Emax (human GHS receptor [1]) of 0%, an EC50 (human GHS receptor [1]) of no less than 25000 nM and an IC50 (human GHS receptor [2]) of 3.7 nM.
With `CCOc1ccc(Cl)c(C(=O)NC(=O)Nc2nc3ccc(S(C)(=O)=O)cc3s2)c1` [Example 53, 2-Chloro-5-ethoxy-N-(6-(methylsulfonyl)benzothiazol-2-ylcarbamoyl)benzamide] the Emax (human GHS receptor [1]) was 0%, the EC50 (human GHS receptor [1]) was no less than 25000 nM and the IC50 (human GHS receptor [2]) was 10 nM.
`CS(=O)(=O)c1ccc2nc(NC(=O)NC(=O)c3cc(N4CCOCC4)ccc3Cl)sc2c1` [Example 54, 2-Chloro-N-(6-(methylsulfonyl)benzothiazol-2-ylcarbamoyl)-5-morpholin-4-yl benzamide] showed an Emax (human GHS receptor [1]) of 0.0527%, an EC50 (human GHS receptor [1]) of no less than 25000 nM and an IC50 (human GHS receptor [2]) of 10.1 nM.
With `Cc1ccnn1-c1ccc(Cl)c(C(=O)NC(=O)Nc2nc3ccc(S(C)(=O)=O)cc3s2)c1` [Example 55, 2-Chloro-5-(5-methyl-1H-pyrazol-1-yl)-N-(6-(methylsulfonyl)benzothiazol-2-ylcarbamoyl)benzamide] the Emax (human GHS receptor [1]) was 48.9%, the EC50 (human GHS receptor [1]) was 5.7 nM and the IC50 (human GHS receptor [2]) was 23.1 nM.
`Cc1ccn(-c2ccc(Cl)c(C(=O)NC(=O)Nc3nc4ccc(S(C)(=O)=O)cc4s3)c2)n1` [Example 56, 2-Chloro-5-(3-methyl-1H-pyrazol-1-yl)-N-(6-(methylsulfonyl)benzothiazol-2-ylcarbamoyl)benzamide] was tested, and the Emax (human GHS receptor [1]) was 10.8%, the EC50 (human GHS receptor [1]) was no less than 25000 nM and the IC50 (human GHS receptor [2]) was 10.1 nM.
With `CS(=O)(=O)c1ccc2nc(NC(=O)NC(=O)c3cc(-c4ncccn4)ccc3Cl)sc2c1` [Example 57, 2-Chloro-N-(6-(methylsulfonyl)benzothiazol-2-ylcarbamoyl)-5-(pyrimidin-2-yl)benzamide] the Emax (human GHS receptor [1]) was 0%, the EC50 (human GHS receptor [1]) was greater than 25000 nM and the IC50 (human GHS receptor [2]) was 162 nM.
In the case of `CS(=O)(=O)Oc1ccc(Cl)c(C(=O)NC(=O)Nc2nc3ccc(S(C)(=O)=O)cc3s2)c1` [Example 58, 4-Chloro-3-(6-(methylsulfonyl)benzothiazol-2-ylcarbamoylcarbamoyl)phenyl methanesulfonate], the Emax (human GHS receptor [1]) is reported as 8.82%, the EC50 (human GHS receptor [1]) is reported as 3010 nM and the IC50 (human GHS receptor [2]) is reported as 1310 nM.
Work on `CN1CCN(c2ccc(Cl)c(C(=O)NC(=O)Nc3nc4ccc(S(C)(=O)=O)cc4s3)c2)CC1` [Example 59, 2-Chloro-5-(4-methylpiperazin-1-yl)-N-(6-(methylsulfonyl)benzothiazol-2-ylcarbamoyl)benzamide] yielded an Emax (human GHS receptor [1]) of 0.377%, an EC50 (human GHS receptor [1]) greater than 9300 nM and an IC50 (human GHS receptor [2]) of 207 nM.
For `CN(C)C1CCN(c2ccc(Cl)c(C(=O)NC(=O)Nc3nc4ccc(S(C)(=O)=O)cc4s3)c2)C1` (stereo not drawn) [Example 60, 2-Chloro-5-(3-(dimethylamino)pyrrolidin-1-yl)-N-(6-(methylsulfonyl)benzothiazol-2-ylcarbamoyl)benzamide], the Emax (human GHS receptor [1]) was 0.647%, the EC50 (human GHS receptor [1]) was greater than 25000 nM and the IC50 (human GHS receptor [2]) was 33 nM.
`C#Cc1ccc(Cl)c(C(=O)NC(=O)Nc2nc3ccc(S(C)(=O)=O)cc3s2)c1` [Example 61, 2-Chloro-5-ethynyl-N-(6-(methylsulfonyl)benzothiazol-2-ylcarbamoyl)benzamide] gave an Emax (human GHS receptor [1]) of 0.276%, an EC50 (human GHS receptor [1]) greater than 25000 nM and an IC50 (human GHS receptor [2]) of 161 nM.
